Holding throughout (assay type): cell-based
Assay [1] concerns Escherichia coli (Migula1895) Castellani and Chalmers 1919AL, ATCC10536. The experiment in a line: Kirby-Bauer Disk Diffusion method, Escherichia coli reference strain. The note with it: for inhibition zone: 25-41-52-41°C. The text has this: The culture medium is Nutrient agar (Oxoid CM3) in g/litre Lab-Lemco beef extract 1; Yeast extract 2; Peptone 5; NaCl 5; Agar 15; pH7.4
(§1) For experimental purposes, the antimicrobial activities of the antibiotic standard solution of known concentration, of the yeasts within their incorporation broth after the methods steps, of the supernatants collected by centrifugation and of the pellets of the centrifuged yeasts, after each washing cycle, were compared, using a Kirby-Bauer Disk Diffusion method.
(§2) Sterile filter or blotter paper disks were laid down on the gelose, humidified with PBS 3 µl. 6 to 12µl of each above-mentioned fraction were then sucked into the blotting paper disk.

The test system of assay [2] is Streptococcus pyogenes or Lactobacillus paracasei. As to the kind of experiment: Kirby-Bauer Disk Diffusion method, reference strain not stated for the experiment. As to conditions: Saccharomyces bayanus Lalvin, red grape juice + Potato Plus Juice, clarithromycin 2mg/ml, pH 4.0.
Text: as §1
(§3) The selected reference strains were Streptococcus pyogenes Rosenbach1884AL (BCCM-LMG 21599) or Lactobacillus paracasei subsp. paracasei Collins, Phillips and Zanoni 1989 VP (BCCM-LMG 9192).
(§4) The streptococci or lactobacilli reference strains populations were counted in a Neubauer cell, and then diluted in PBS so as to obtain 2 million germs in one ml buffer: 0.5 ml of the diluted culture medium were then streaked on the agar plates. Another method for obtaining the suitable density of reference bacteria is the culture medium dilution in PBS so as to obtain with a filter photometer, an optical density of 0.04 at 620nm.
as §2
For orientation: A growth-free zone around the sample is the usual read-out of agar diffusion tests.

Assay [3] relates to Streptococcus pyogenes Rosenbach 1884AL, ATCC12344. As to the kind of experiment: Kirby-Bauer Disk Diffusion method, Streptococcus pyogenes reference strain. The note with it: for inhibition zone diameter: Saccharomyces Lalvin.
Text: Streptococcus pyogenes Rosenbach 1884AL, ATCC12344 comes from the BCCM-LMG Bacteria collection, accession number 21599, laboratorium voor microbiologie, UGent, B-9000 Gent. The culture medium is Brain Heart Infusion Broth of typical composition (g/litre) (brain extract, heart extract and peptones 27.5; D+glucose 2.0; sodium chloride 5.0; di-sodium hydrogen phosphate 2.5; agar-agar (not present in the broth) 15.0. Brain Heart Infusion Agar was purchased from Oxoid CM 0375. The medium may be enriched with a sterilized horse serum from defibrinated horse blood for 20 % of global volume. Brain Heart Infusion SM 225 from Oxoid may also be employed for streptococcus culture broth.
as §1, §3, §4, §2

Assay [4] relates to Lactobacillus paracasei subsp. paracasei. As to the kind of experiment: Kirby-Bauer Disk Diffusion method, Lactobacillus paracasei reference strain.
Text: Lactobacillus paracasei subsp. paracasei Collins, Phillips and Zanoni 1989 VP, type strain of Lactobacillus casei subsp. pseudoplantarum, came from the BCCM-LMG Bacteria collection, accession number 9192, ATCC 25598, depositor NCIMB. Lactobacillus kefiri Kandler and Kunath 1983VL, BCCM-LMG Bacteria collection, accession number 9480, ATCC 35411. A modified Man, Rogosa, Sharpe medium has been used for the Lactobacillus kefiri and for Lactobacillus paracasei culture, as a reference strain for antibiotic activity of the yeast strains: the composition (g/liter) peptone 10.0; meat extract 8.0; yeast extract 4.0; glucose 20.0; orthophosphate 2.0; magnesium sulphate heptahydrate 0.2; manganese sulphate tetrahydrate 0.05; ferrous sulphate 0.01; agar 10.0 The pH is adjusted to 6.2 with acetic acid.
as §1, §3, §4, §2

Structures can show the parent of a compound that is named as a salt.

Regarding `CS(=O)(=O)c1ccc([C@@H](O)[C@@H](CF)NC(=O)C(Cl)Cl)cc1` [Florfenicol], in assay [1] (Saccharomyces bayanus Lalvin and Saccharomyces cerevisiae combined, red grape juice medium, florfénicol 2mg/ml, pH 7.5, 20µl deposit), the inhibition zone came to 39 mm.
On to `NCC[C@H](O)C(=O)N[C@@H]1C[C@H](N)[C@@H](O[C@H]2O[C@H](CN)[C@@H](O)[C@H](O)[C@H]2O)[C@H](O)[C@H]1O[C@H]1O[C@H](CO)[C@@H](O)[C@H](N)[C@H]1O` [Amikacine sulfate standard in TBS, Amikacine sulphate], for which, in assay [1] (Kluyveromyces marxianus, red grape juice + potatoes juice with selenium, Amukin 1mg/ml, pH 4.0, violet photoinduction), the inhibition zone is listed as 26.5 mm.
Take `CC[C@H]1OC(=O)[C@H](C)[C@@H](O[C@H]2C[C@@](C)(OC)[C@@H](O)[C@H](C)O2)[C@H](C)[C@@H](O[C@@H]2O[C@H](C)C[C@H](N(C)C)[C@H]2O)[C@](C)(OC)C[C@@H](C)C(=O)[C@H](C)[C@@H](O)[C@]1(C)O` [Clarithromycin standard (2mg/ml), clarithromycin]: the inhibition zone in assay [2] (after sequence 25-35-52-41°C (last thermal plate)) is on record as 42 mm; in assay [2] (after sequence 25-39-52-41°C (last thermal plate)), 42 mm; in assay [4] (Saccharomyces Lalvin, clarithromycin 2mg/ml, pH 4.0, 25-41-43-35-25°C) it was 41 mm; in assay [4] (Saccharomyces Lalvin, clarithromycin 2mg/ml, pH 4.0, 25-41-45-35-25°C), 41 mm; in assay [4] (Saccharomyces Lalvin, clarithromycin 2mg/ml, pH 4.0, 25-41-47-35-25°C) it was 38.5 mm; in assay [4] (Saccharomyces Lalvin, clarithromycin 2mg/ml, pH 4.0, 25-41-49-35-25°C) it was 40 mm. Further, the inhibition zone in assay [4] (Saccharomyces Lalvin, clarithromycin 2mg/ml, pH 4.0, 25-41-51-35-25°C) amounted to 40 mm; in assay [4] (Saccharomyces Lalvin, clarithromycin 2mg/ml, pH 4.0, 25-41-53-35-25°C), 40 mm; in assay [4] (Saccharomyces Lalvin, clarithromycin 2mg/ml, pH 4.0, 25-41-54-35-25°C), 40 mm; in assay [4] (Saccharomyces Lalvin, red grape juice + Potato Plus Juice, clarithromycin 2mg/ml, pH 4.0, 25-41-41-35-25°C (upper plate 41°C)), 41 mm; in assay [4] (Saccharomyces bayanus Lalvin QA23, red grape juice + raw potatoes juice with selenium, clarithromycin 2mg/ml, pH 4.0, 25-41-52-41-35°C, skullcap extract after 35°C plate) it was 42 mm; in assay [4] (Saccharomyces bayanus Lalvin, clarithromycin 2mg/ml, pH 6.5, after sequence 25-41-52-41-35-25°C (last thermal plate), 8µl), 38.5 mm. Besides, the inhibition zone in assay [4] (Saccharomyces bayanus Lalvin, medium a: red grape juice + Potato Plus Juice, clarithromycin 2mg/ml, pH 4.0, 25-41-52-41-35-25°C, violet photoinduction) is 39.5 mm; in assay [4] (Saccharomyces bayanus Lalvin, medium c: red grape juice + Potato Plus Juice + spelt wheat hydrolysate, clarithromycin 2mg/ml, pH 6.5, 25-41-52-41-35-25°C, violet photoinduction) it was 36.5 mm. For the same compound, the “inhibition zone in diameter” value in assay [3] (Kluyveromyces marxianus + Lactobacillus kefiri, red grape juice + sweet potatoes juice with selenium, clarithromycin, pH 4.0, 25-41-52-41°C, violet photoinduction) worked out at 47 mm. The inhibition zone diameter is 38 mm in assay [3] (YPD broth pH 6.5, clarithromycin 2mg/ml, simplified sequence 25-37-25°C (mild heat stress)); 37 mm in assay [3] (red grape juice + raw potatoes juice with selenium, clarithromycin 2mg/ml, pH 4.0, thermal plates 25-41-52-41-35-25°C, 8µl on disk); 40.5 mm in assay [4] (Saccharomyces Lalvin, YPD broth pH 6.5, clarithromycin 2mg/ml, experiment with lethal heat stress 25-34-55-34-25°C); 38 mm in assay [4] (Saccharomyces Lalvin, red grape juice + raw potatoes juice with selenium, clarithromycin 2mg/ml, pH 4.0, 25-41-52-41-35-25°C, 8µl on disk).
In the case of `O=C1CN(/N=C/c2ccc([N+](=O)[O-])o2)C(=O)N1` [Standard nitrofurantoin in DMSO, 1mg/ml, Nitrofurantoin], the Inhibition zone diameters in assay [1] (20µl deposits, Saccharomyces cerevisiae bayanus Lalvin QA23, nitrofurantoin, pH around 7.0, 90minutes 41°C, 60minutes 52°C) amounted to 32 mm.
On to `CC[C@H]1OC(=O)[C@H](C)[C@@H](O[C@H]2C[C@@](C)(OC)[C@@H](O)[C@H](C)O2)[C@H](C)[C@@H](O[C@@H]2O[C@H](C)C[C@H](N(C)C)[C@H]2O)[C@](C)(O)C[C@@H](C)C(=O)[C@H](C)[C@@H](O)[C@]1(C)O` [Erythromycin standard (2mg/ml), Erythromycin], for which the inhibition zone in assay [3] (Saccharomyces bayanus Lalvin, red grape juice + alkaline hydrolyzed spelt wheat flour + parsley juice, erythromycin 1mg/ml, pH 7.0, 25-41-52-41-35-25°C, violet photoinduction, BHI agar with defibrinated horse blood) is listed as 48 mm.

Values taken from EP2813566A1, “Method for incorporating a compound into live yeast cells” (priority 2013, dated 2014).
